# Results published in paper PMC10298979, “Assessments of Alpha-Amylase Inhibitory Potential of Tagetes Flavonoids through In Vitro, Molecular Docking, and Molecular Dynamics Simulation Studies” (International Journal of Molecular Sciences, 2023).
# Key:
# [1] = no reference given; cited from earlier work
# [2] = molecular target: alpha-amylase; assay: in vitro alpha-amylase inhibition (AAI) assay, Ultra-Amylase EnzChek Assay Kit; format: biochemical
# Text: The AAI capacity of T. minuta flavonoids was estimated using an Ultra-Amylase®Enz-Chek Assay Kit in line with a formerly reported method.
# [3] = set-up: method as in PMID 24599122, PMID 16168446; conditions: cited from earlier work; for IC50 for DPPH: radical scavenging
# [4] = set-up: method as in PMID 24599122, PMID 16168446; conditions: cited from earlier work
# [5] = test system: PE (phenylephrine)-precontracted thoracic aortic rings; set-up: method as in PMID 23763258; conditions: PE-precontracted thoracic aortic rings in rats; cited from earlier work
Structure (SMILES),IC50 [2] [µM],also measured
C[C@H]1O[C@H](O[C@H]2[C@H](O)[C@@H](O)[C@@H](O[C@H]3[C@H](O)[C@@H](O)C(O)O[C@@H]3CO)O[C@@H]2CO)[C@H](O)[C@@H](O)[C@@H]1N[C@H]1C=C(CO)[C@@H](O)[C@H](O)[C@H]1O (stereo partly shown) [Acarbose],–,oral dose absorbed into the bloodstream [1]: 2%; oral dose eliminated through fecal excretion [1]: approximately 51%
"O=C(C=Cc1ccc(O)c(O)c1)OCC1OC(Oc2c(O)cc3oc(-c4ccc(O)c(O)c4)c(O)c(=O)c3c2O)C(O)C(O)C1O [Compound 1, quercetagetin-6-O-(6-O-caffeoyl-β-D-glucopyranoside)]",10.1,DPPH scavenging [3]: 89.1%
"O=c1c(O)c(-c2ccc(O)c(O)c2)oc2cc(OC3OC(CO)C(O)C(O)C3O)c(O)c(O)c12 [Compound 2, quercetagetin-7-O-β-D-glucopyranoside]",7.8,IC50 for DPPH [3]: 3.92 mg/L; %inhibition for superoxide anion [4]: 82.85%; vasorelaxation [5]: vasorelaxation potential
"O=c1c(O)c(-c2ccc(O)c(O)c2)oc2cc(O)c(OC3OC(CO)C(O)C(O)C3O)c(O)c12 [Compound 3, quercetagetin-6-O-β-D-glucopyranoside]",8.9,–
"CCCCCC(=O)OCC1OC(Oc2c(O)cc3oc(-c4ccc(O)c(O)c4)c(O)c(=O)c3c2O)C(O)C(O)C1O (stereo not shown) [Compound 4, minutaside A]",9.2,–
"COc1c(OC2OC(CO)C(O)C(O)C2O)cc2oc(-c3ccc(O)c(O)c3)c(O)c(=O)c2c1O [Compound 5, patuletin-7-O-β-D-glucopyranoside]",8.1,IC50 for DPPH [3]: 12.1 mg/L
"COc1cc2oc(-c3ccc(O)c(O)c3)c(O)c(=O)c2c(O)c1O[C@@H]1O[C@H](CO)[C@@H](O)[C@H](O)[C@H]1O [Compound 6, quercetagetin-7-methoxy-6-O-β-D-glucopyranoside]",9.7,–
"COc1c(-c2ccc(O)c(O)c2)oc2c(O)c(O)c(O[C@@H]3O[C@H](CO)[C@@H](O)[C@H](O)[C@H]3O)c(O)c2c1=O [Compound 7, tagenol B]",10.8,–
"COc1c(O)cc2oc(-c3ccc(O)c(O)c3)c(O)c(=O)c2c1O [Compound 8, patuletin]",13.6,–
"COc1cc2oc(-c3ccc(O)c(O)c3)c(OC)c(=O)c2c(O)c1O[C@@H]1O[C@H](CO)[C@@H](O)[C@H](O)[C@H]1O [Compound 9, quercetagetin-3,7-dimethoxy-6-O-β-D-glucopyranoside]",12.7,–
"COc1c(-c2ccc(O)c(O)c2)oc2cc(O)cc(O)c2c1=O [Compound 10, quercetin-3-methyl ether]",26.9,–
"COc1c(O)cc2oc(-c3ccc(O)c(O)c3)c(OC)c(=O)c2c1O [Compound 11, quercetin-3,6-dimethyl ether]",21.7,–
"COc1ccc(-c2oc3c(O)c(O)c(OC)c(O)c3c(=O)c2OC)cc1O [Compound 12, tagenol A]",14.9,–
